Test results taken from patent publication US20240158412A1 (Faxian Therapeutics, LLC, priority 2021, published 2024).
pIC50: −log10 of the molar value.

biological target: USP7 (Homo sapiens, UniProt Q93009); assay: biochemical
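Note: fluorescence intensity readout of USP7 enzymatic activity, reaction incubated 90 min at room temperature.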

USP7, sequence (Q93009 whole entry): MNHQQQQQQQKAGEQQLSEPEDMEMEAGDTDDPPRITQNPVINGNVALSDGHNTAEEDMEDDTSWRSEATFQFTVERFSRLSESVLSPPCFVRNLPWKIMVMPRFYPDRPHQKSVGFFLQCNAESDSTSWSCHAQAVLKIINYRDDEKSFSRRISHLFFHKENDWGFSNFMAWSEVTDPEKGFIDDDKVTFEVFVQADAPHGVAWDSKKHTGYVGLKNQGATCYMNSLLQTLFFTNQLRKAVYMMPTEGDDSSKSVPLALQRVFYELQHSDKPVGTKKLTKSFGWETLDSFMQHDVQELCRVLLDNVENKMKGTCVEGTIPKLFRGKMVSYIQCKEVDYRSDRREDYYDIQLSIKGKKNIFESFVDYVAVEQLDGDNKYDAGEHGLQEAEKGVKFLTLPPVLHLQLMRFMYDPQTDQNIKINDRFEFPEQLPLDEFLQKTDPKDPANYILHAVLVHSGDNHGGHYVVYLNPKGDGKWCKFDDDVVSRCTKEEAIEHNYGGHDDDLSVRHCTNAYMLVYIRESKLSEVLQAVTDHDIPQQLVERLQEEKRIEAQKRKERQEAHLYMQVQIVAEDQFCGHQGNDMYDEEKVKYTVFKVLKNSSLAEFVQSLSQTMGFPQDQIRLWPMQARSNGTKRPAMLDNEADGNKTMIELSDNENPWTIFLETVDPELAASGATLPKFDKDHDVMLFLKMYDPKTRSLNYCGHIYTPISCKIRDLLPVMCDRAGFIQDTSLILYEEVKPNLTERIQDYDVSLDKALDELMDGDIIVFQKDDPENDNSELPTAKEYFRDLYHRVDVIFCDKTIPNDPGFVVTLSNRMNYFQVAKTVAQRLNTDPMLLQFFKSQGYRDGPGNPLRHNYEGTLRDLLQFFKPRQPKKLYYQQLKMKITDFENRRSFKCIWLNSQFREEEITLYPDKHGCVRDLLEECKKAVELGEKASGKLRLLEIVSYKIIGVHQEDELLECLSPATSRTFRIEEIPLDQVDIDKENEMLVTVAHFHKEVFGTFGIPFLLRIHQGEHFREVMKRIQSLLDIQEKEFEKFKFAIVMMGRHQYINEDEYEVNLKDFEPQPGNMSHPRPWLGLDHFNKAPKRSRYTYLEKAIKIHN

Structure (SMILES)	pIC50
CC1(c2cnn(Cc3cc4nccc(-c5cc(C#N)cc6c5N([C@@H]5CN[C@@H](CO)C5)C[C@@H]5C[C@H]65)c4s3)c(=O)c2)CC1 (single isomer, unassigned) [Example 195b]	> 8.00
COC(=O)[C@@]1(C)C[C@@H](N2CCCc3cc(Cl)cc(-c4ccnc5cc(CN6C(=O)CCC6=O)sc45)c32)CN1 (single isomer, unassigned) [Example 201]	6.00 to 7.00
COC(=O)[C@]1(C)C[C@@H](N2CCCc3cc(Cl)cc(-c4ccnc5cc(CN6C(=O)CCC6=O)sc45)c32)CN1 (single isomer, unassigned) [Example 202]	7.00 to 8.00
COC(=O)[C@@]1(C)C[C@H](N2CCCc3cc(Cl)cc(-c4ccnc5cc(CN6C(=O)CCC6=O)sc45)c32)CN1 (single isomer, unassigned) [Example 203]	> 8.00
COC(=O)[C@]1(C)C[C@H](N2CCCc3cc(Cl)cc(-c4ccnc5cc(CN6C(=O)CCC6=O)sc45)c32)CN1 (single isomer, unassigned) [Example 204]	6.00 to 7.00
O=C1C2CC2C(=O)N1Cc1cc2nccc(-c3cc(Cl)cc4c3N([C@H]3CNC(CO)(CO)C3)CCO4)c2s1 (single isomer, unassigned) [Example 212a]	> 8.00
O=C1C2CC2C(=O)N1Cc1cc2nccc(-c3cc(Cl)cc4c3N([C@@H]3CNC(CO)(CO)C3)CCO4)c2s1 (single isomer, unassigned) [Example 212b]	7.00 to 8.00
O=C1CCC(=O)N1Cc1cc2nccc(-c3cc(Cl)cc4c3N([C@H]3CO[C@@H](CO)C3)CCO4)c2s1 (single isomer, unassigned) [Example 227a]	< 6.00
O=C1CCC(=O)N1Cc1cc2nccc(-c3cc(Cl)cc4c3N([C@H]3CO[C@H](CO)C3)CCO4)c2s1 (single isomer, unassigned) [Example 227b]	6.00 to 7.00
O=C1CCC(=O)N1Cc1cc2nccc(-c3cc(Cl)cc4c3N(C3CO[C@@H](CO)C3)CCO4)c2s1 (single isomer, unassigned) [Example 227c]	< 6.00
O=C1CCC(=O)N1Cc1cc2nccc(-c3cc(Cl)cc4c3C3(CCC4)CNCCO3)c2s1 (single isomer, unassigned) [Example 229a]	7.00 to 8.00
O=C1CCC(=O)N1Cc1cc2nccc(-c3cc(Cl)cc4c3C3(CCC4)CNCCO3)c2s1 (single isomer, unassigned) [Example 229b]	< 6.00
O=c1ccn(CC(F)F)c(=O)n1Cc1cc2nccc(-c3cc(Cl)cc4c3N(C3CCNC3)C[C@H]3C[C@@H]43)c2s1 (stereo in doubt) [Example 115, 3-[[7-[(1aS,3R,7bR)-6-chloro-3-pyrrolidin-3-yl-1,1a,2,7b-tetrahydrocyclopropa[c]quinolin-4-yl]thieno[3,2-b]pyridin-2-yl]methyl]-1-(2,2-difluoroethyl)pyrimidine-2,4-dione]	> 8.00
Cn1ccc(=O)n(Cc2cc3nccc(-c4cc(C#N)cc5c4N(C4CNC(C)(C)C4)CCC5)c3s2)c1=O (stereo in doubt) [Example 121, (S)-1-(5,5-dimethylpyrrolidin-3-yl)-8-(2-((3-methyl-2,6-dioxo-3,6-dihydropyrimidin-1(2H)-yl)methyl)thieno[3,2-b]pyridin-7-yl)-1,2,3,4-tetrahydroquinoline-6-carbonitrile]	> 8.00
CC1(C)CC(N2CCCc3cc(C#N)cc(-c4ccnc5cc(Cn6ncc(C(C)(C)C)cc6=O)sc45)c32)CN1 (stereo in doubt) [Example 132, (S)-8-(2-((4-(tert-butyl)-6-oxopyridazin-1(6H)-yl)methyl)thieno[3,2-b]pyridin-7-yl)-1-(5,5-dimethylpyrrolidin-3-yl)-1,2,3,4-tetrahydroquinoline-6-carbonitrile]	> 8.00
Cn1ccnc(Cc2cc3nccc(-c4cc(Cl)cc5c4N([C@@H]4CNC6(CCC6)C4)CCC5)c3s2)c1=O (stereo in doubt) [Example 160, 3-((7-(6-chloro-1-(5-azaspiro[3.4]octan-7-yl)-1,2,3,4-tetrahydroquinolin-8-yl)thieno[3,2-b]pyridin-2-yl)methyl)-1-methylpyrazin-2(1H)-one]	6.00 to 7.00

Structure (SMILES)	pIC50
N#Cc1cc(-c2ccnc3cc(Cn4ncc(C5(C(F)(F)F)CC5)cc4=O)sc23)c2c(c1)C1CC1CN2[C@@H]1CN[C@@H](CO)C1 (stereo in doubt) [Example 194b, (1aS,7bR)-3-((3S,5R)-5-(hydroxymethyl)pyrrolidin-3-yl)-4-(2-((6-oxo-4-(1-(trifluoromethyl)cyclopropyl)pyridazin-1(6H)-yl)methyl)thieno[3,2-b]pyridin-7-yl)-1a,2,3,7b-tetrahydro-1H-cyclopropa[c]quinoline-6-carbonitrile]	7.00 to 8.00
CC(C)(C)c1cnn(Cc2cc3nccc(-c4cc(Cl)cc5c4N(C4CNC(CO)(CO)C4)CCO5)c3s2)c(=O)c1 (stereo in doubt) [Example 213a, (R)-2-((7-(4-(5,5-bis(hydroxymethyl)pyrrolidin-3-yl)-7-chloro-3,4-dihydro-2H-benzo[b][1,4]oxazin-5-yl)thieno[3,2-b]pyridin-2-yl)methyl)-5-(tert-butyl)pyridazin-3(2H)-one]	7.00 to 8.00
CC(C)(C)c1cnn(Cc2cc3nccc(-c4cc(Cl)cc5c4N(C4CNC(CO)(CO)C4)CCO5)c3s2)c(=O)c1 (stereo in doubt) [Example 213b, (S)-2-((7-(4-(5,5-bis(hydroxymethyl)pyrrolidin-3-yl)-7-chloro-3,4-dihydro-2H-benzo[b][1,4]oxazin-5-yl)thieno[3,2-b]pyridin-2-yl)methyl)-5-(tert-butyl)pyridazin-3(2H)-one]	> 8.00
CCn1c(N(C)C)cc(=O)n(Cc2cc3nccc(-c4cc(C#N)cc5c4N([C@H]4CN[C@](C)(CO)C4)CCO5)c3s2)c1=O (stereo in doubt) [Example 219, 5-(2-((4-(dimethylamino)-3-ethyl-2,6-dioxo-2,3-dihydropyrimidin-1(6H)-yl)methyl)thieno[3,2-b]pyridin-7-yl)-4-((3R,5S)-5-(hydroxymethyl)-5-methylpyrrolidin-3-yl)-3,4-dihydro-2H-benzo[b][1,4]oxazine-7-carbonitrile]	> 8.00
N[C@@H]1CCN(C2CCOc3cc(Cl)cc(-c4ccnc5cc(CN6C(=O)CCC6=O)sc45)c32)C1 (stereo in doubt) [Example 230a, 1-((7-((S)-4-((R)-3-aminopyrrolidin-1-yl)-7-chlorochroman-5-yl)thieno[3,2-b]pyridin-2-yl)methyl)pyrrolidine-2,5-dione]	7.00 to 8.00
N[C@@H]1CCN(C2CCOc3cc(Cl)cc(-c4ccnc5cc(CN6C(=O)CCC6=O)sc45)c32)C1 (stereo in doubt) [Example 230b, 1-((7-((R)-4-((R)-3-aminopyrrolidin-1-yl)-7-chlorochroman-5-yl)thieno[3,2-b]pyridin-2-yl)methyl)pyrrolidine-2,5-dione]	< 6.00
O=C1CCC(=O)N1Cc1cc2nccc(-c3cc(Cl)cc4c3N(C3CNC3)CCC4)c2s1 [Example 1, 1-((7-(1-(azetidin-3-yl)-6-chloro-1,2,3,4-tetrahydroquinolin-8-yl)thieno[3,2-b]pyridin-2-yl)methyl)pyrrolidine-2,5-dione]	7.00 to 8.00
CN1CC(N2CCCc3cc(Cl)cc(-c4ccnc5cc(CN6C(=O)CCC6=O)sc45)c32)C1 [Example 2, 1-((7-(6-chloro-1-(1-methylazetidin-3-yl)-1,2,3,4-tetrahydroquinolin-8-yl)thieno[3,2-b]pyridin-2-yl)methyl)pyrrolidine-2,5-dione]	7.00 to 8.00
O=C1CCC(=O)N1Cc1cc2nccc(-c3cc(Cl)cc4c3N(C3CN(C5CCC5)C3)CCC4)c2s1 [Example 3, 1-((7-(6-chloro-1-(1-cyclobutylazetidin-3-yl)-1,2,3,4-tetrahydroquinolin-8-yl)thieno[3,2-b]pyridin-2-yl)methyl)pyrrolidine-2,5-dione]	7.00 to 8.00
CCN1CC(N2CCCc3cc(Cl)cc(-c4ccnc5cc(CN6C(=O)CCC6=O)sc45)c32)C1 [Example 4, 1-((7-(6-chloro-1-(1-ethylazetidin-3-yl)-1,2,3,4-tetrahydroquinolin-8-yl)thieno[3,2-b]pyridin-2-yl)methyl)pyrrolidine-2,5-dione]	7.00 to 8.00
O=C1CCC(=O)N1Cc1cc2nccc(-c3cc(Cl)cc4c3N(C3CN(C5CC5)C3)CCC4)c2s1 [Example 5, 1-((7-(6-chloro-1-(1-cyclopropylazetidin-3-yl)-1,2,3,4-tetrahydroquinolin-8-yl)thieno[3,2-b]pyridin-2-yl)methyl)pyrrolidine-2,5-dione]	7.00 to 8.00
O=C1CCC(=O)N1Cc1cc2nccc(-c3cc(Cl)cc4c3N(C3CN(C5COC5)C3)CCC4)c2s1 [Example 6, 1-((7-(6-chloro-1-(1-(oxetan-3-yl)azetidin-3-yl)-1,2,3,4-tetrahydroquinolin-8-yl)thieno[3,2-b]pyridin-2-yl)methyl)pyrrolidine-2,5-dione]	7.00 to 8.00
CNC(=O)N1CC(N2CCCc3cc(Cl)cc(-c4ccnc5cc(CN6C(=O)CCC6=O)sc45)c32)C1 [Example 7, 3-[6-chloro-8-[2-[(2,5-dioxopyrrolidin-1-yl)methyl]thieno[3,2-b]pyridin-7-yl]-3,4-dihydro-2H-quinolin-1-yl]-N-methyl-azetidine-1-carboxamide]	6.00 to 7.00
CC(=O)N1CC(N2CCCc3cc(Cl)cc(-c4ccnc5cc(CN6C(=O)CCC6=O)sc45)c32)C1 [Example 8, 1-((7-(1-(1-acetylazetidin-3-yl)-6-chloro-1,2,3,4-tetrahydroquinolin-8-yl)thieno[3,2-b]pyridin-2-yl)methyl)pyrrolidine-2,5-dione]	6.00 to 7.00
O=C1CCC(=O)N1Cc1cc2nccc(-c3cc(Cl)cc4c3N(C3CN(CCO)C3)CCC4)c2s1 [Example 10, 1-[[7-[6-chloro-1-[1-(2-hydroxyethyl)azetidin-3-yl]-3,4-dihydro-2H-quinolin-8-yl]thieno[3,2-b]pyridin-2-yl]methyl]pyrrolidine-2,5-dione]	7.00 to 8.00
O=C1CCC(=O)N1Cc1cc2nccc(-c3cc(Cl)cc4c3N(C3CN(CC(F)F)C3)CCC4)c2s1 [Example 11, 1-((7-(6-chloro-1-(1-(2,2-difluoroethyl)azetidin-3-yl)-1,2,3,4-tetrahydroquinolin-8-yl)thieno[3,2-b]pyridin-2-yl)methyl)pyrrolidine-2,5-dione]	6.00 to 7.00
